Legend:
Details in all cases: synthetic library passage 3, intravenous, relative to wild-type AAV9
[1] = test system: brain, spinal cord, and DRG of the NHPs; assay: NGS fold enrichment of synthetic library (passage 3) in NHPs, first cross-species screen; assay type: in vivo, cynomolgus macaques (Macaca fascicularis)
Procedure, shortened: (§1)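 Passage-3 synthetic capsid library given intravenously […] to NHPs (2-4 years) and BALB/c or C57Bl/6 mice (n=3, 6-8 weeks). After e.g. 28 days, tissue RNA was RT-PCR amplified and NGS-sequenced; values are fold enrichment of each variant relative to wild-type AAV9.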

brain [2] = assay: NGS fold enrichment of synthetic library (passage 3) in BALB/c mice, first cross-species screen; assay type: in vivo
Procedure, shortened: as §1

brain [3] = assay: NGS fold enrichment of synthetic library (passage 3) in C57Bl/6 mice, first cross-species screen; assay type: in vivo
Procedure, shortened: as §1

[4] = RNA from spinal cord of NHPs, NGS
[5] = RNA from brain of BALB/c mice, NGS
[6] = RNA from brain of C57Bl/6 mice, NGS

Sequence | Fold enrichment over AAV9 in the brain of NHPs ([1]; RNA NGS, brain of NHPs) [fold] | Fold enrichment over AAV9 in the spinal cord of NHPs ([1]; RNA NGS, spinal cord of NHPs) [fold] | Fold enrichment over AAV9 in the brain of Mice (BALB/c) (brain [2]; RNA NGS, brain of BALB/c mice) [fold] | Fold enrichment over AAV9 in the brain of Mice (C57Bl/6) (brain [3]; RNA NGS, brain of C57Bl/6 mice) [fold] | Fold enrichment over AAV9 in the brain of NHPs ([1]; RNA from brain of NHPs, NGS) [fold] | Fold enrichment over AAV9 in the spinal cord of NHPs [1, 4] [fold] | Fold enrichment over AAV9 in the brain of Mice (BALB/c) (brain [2]; [5]) [fold] | Fold enrichment over AAV9 in the brain of Mice (C57Bl/6) (brain [3]; [6]) [fold]
GSNLSFQSGQNQQT | 2.122 | 5.853 | 0.719 | 1.087 |  |  |  | 
GSNMGVPLGQNQQT | 2.049 | 2.448 | 0.420 | 0.334 |  |  |  | 
GSPGVSPSGQNQQT |  |  |  |  | 1.178 | 3.006 | 1.160 | 0.853
GSPLQDRVGQNQQT | 1.548 | 0.753 | 0.391 | 0.469 |  |  |  | 
GSPYMGATGQNQQT | 1.083 | 5.364 | 0.254 | 0.918 |  |  |  | 
GSQSTLGLGQNQQT |  |  |  |  | 1.204 | 3.246 | 0.400 | 0.594
GSRDGHTVGQNQQT | 1.928 | 7.089 | 0.661 | 0.495 |  |  |  | 
GSRETSLSGQNQQT |  |  |  |  | 1.373 | 5.193 | 0.203 | 1.364
GSRLVHVHGQNQQT | 2.334 | 1.174 | 0.934 | 1.277 |  |  |  | 
GSRMTQQFGQNQQT | 1.720 | 25.798 | 0.976 | 1.233 |  |  |  | 
GSRNGHAVGQNQQT | 1.574 | 2.688 | 0.939 | 0.434 |  |  |  | 
GSRNGHTVGRNQQT | 1.993 | 0.000 | 0.367 | 1.162 |  |  |  | 
GSRQSKRNELNQQT | 2.177 | 0.000 | 0.232 | 1.325 |  |  |  | 
GSRSQYDIGQNQQT | 1.706 | 0.112 | 0.193 | 0.528 |  |  |  | 
GSRSTGPSGQNQQT | 1.819 | 2.479 | 0.466 | 0.440 |  |  |  | 
GSRTLSNVGQNQQT | 1.640 | 3.219 | 0.542 | 0.617 |  |  |  | 

Sequence | Fold enrichment over AAV9 in the brain of NHPs ([1]; RNA NGS, brain of NHPs) [fold] | Fold enrichment over AAV9 in the spinal cord of NHPs ([1]; RNA NGS, spinal cord of NHPs) [fold] | Fold enrichment over AAV9 in the brain of Mice (BALB/c) (brain [2]; RNA NGS, brain of BALB/c mice) [fold] | Fold enrichment over AAV9 in the brain of Mice (C57Bl/6) (brain [3]; RNA NGS, brain of C57Bl/6 mice) [fold] | Fold enrichment over AAV9 in the brain of NHPs ([1]; RNA from brain of NHPs, NGS) [fold] | Fold enrichment over AAV9 in the spinal cord of NHPs [1, 4] [fold] | Fold enrichment over AAV9 in the brain of Mice (BALB/c) (brain [2]; [5]) [fold] | Fold enrichment over AAV9 in the brain of Mice (C57Bl/6) (brain [3]; [6]) [fold]
GSRTTQDIGQNQQT |  |  |  |  | 1.247 | 0.000 | 0.280 | 0.685
GSRTTQVIGQNQQT | 1.570 | 1.838 | 0.564 | 0.773 |  |  |  | 
GSRTVPVYGQNQQT |  |  |  |  | 1.371 | 0.363 | 0.969 | 1.226
GSRTYQVSGQNQQT |  |  |  |  | 1.164 | 1.853 | 0.641 | 0.638
GSSGHRESGQNQQT | 1.048 | 4.398 | 0.691 | 0.641 |  |  |  | 
GSSGIPVSHQNQQT | 1.690 | 3.384 | 0.333 | 0.820 |  |  |  | 
GSSGRDMGGQNQQT | 1.778 | 2.177 | 0.595 | 1.052 |  |  |  | 
GSSGSHQYGQNQQT |  |  |  |  | 1.155 | 0.000 | 0.794 | 1.129
GSSHRFYGGQNQQT | 4.732 | 0.000 | 0.110 | 0.787 |  |  |  | 
GSSHTLALGQNKQT |  |  |  |  | 1.362 | 2.160 | 0.643 | 0.838
GSSHTLALGQNQQT | 1.441 | 7.071 | 0.406 | 0.851 |  |  |  | 
GSSHTQALGQNQQT | 1.784 | 0.143 | 0.874 | 0.882 |  |  |  | 
GSSKELLWGQNQQT | 2.163 | 0.000 | 0.883 | 0.506 |  |  |  | 
GSSPAPNSGQNQQT | 1.106 | 2.229 | 0.368 | 0.719 |  |  |  | 
GSSQNQQHDMRLRT |  |  |  |  | 1.386 | 2.645 | 0.552 | 0.669
